Earlier results on three compounds are cited in PubChem BioAssay AID1259409 (Chemical Carcinogenesis Research Information System (CCRIS), 2018).

Structures are written as SMILES. Values joined by “and” are separate entries in the source; they are usually repeats but may differ in a detail not shown here. Equal entries are not always repeated.

For the series, the system named is rodent chemically induced tumor inhibition, incidence and multiplicity. The experiment in a line: CCRIS tumor inhibitor studies. The conditions noted are these: Species: MOUSE.

For `COc1ccc2cc1Oc1ccc(cc1)C[C@H]1c3cc(c(OC)cc3CCN1C)Oc1c(OC)c(OC)cc3c1[C@@H](C2)N(C)CC3`, the “tumour outcome (control, treated, inhibition, significance)” value (Carcinogen: 7,12-DIMETHYLBENZ[A]ANTHRACENE, 57-97-6, Dose [Inhibitor]: 0, 2 UMOL 2/WK 30 MIN PRIOR TO EACH PROMOTER DOSE BEGINNING 1 WK POST CARCINOGEN DOSE (STUDY DURATION: 18 WK), Route [Inhibitor]: DERMAL, Strain/Sex: ICR/FEMALE, Target Tissue: Type of Lesion: SKIN: PAPILLOMA, Dose [Carcinogen]: 50 UG ONCE, Promoter: 12-O-TETRADECANOYLPHORBOL-13-ACETATE, 16561-29-8) is on record as 100%, 27%, 73%, not calculated.

In the case of `CC1=C(/C=C/C(C)=C/C=C/C(C)=C/C=C/C=C(C)/C=C/C=C(\C)C=O)C(C)(C)CCC1`, the “tumour outcome (control, treated, inhibition, significance)” value (Carcinogen: BENZO[A]PYRENE, 50-32-8, Dose [Inhibitor]: 0, 4.7 MICROMOLAR/D IN 0.1 ML PEANUT OIL BEGINNING 2 WK PRIOR TO CARCINOGEN TREATMENT AND CONTINUING TO 2 WK POST CARCIN, Route [Inhibitor]: GAVAGE, Strain/Sex: SWISS/FEMALE, Target Tissue: Type of Lesion: FORESTOMACH: TUMOR, Dose [Carcinogen]: 1 MG 2/WK IN 0.1 ML PEANUT OIL FOR 4 WK, Promoter: NONE USED) was 20/20 (100%), 5/20 (25%), 75%, p<0.001.

As to `Cc1cc(C)c(C)c(O)c1C`, the “tumour outcome (control, treated, inhibition, significance)” value (Carcinogen: BENZO[A]PYRENE, 50-32-8, Dose [Inhibitor]: 0.03 MMOL/G OF DIET DAILY STARTING 7 D BEFORE AND CONTINUING THROUGH 3 D AFTER CARCINOGEN TREATMENT FOLLOWED BY OBSERVAT, Route [Inhibitor]: ORAL, Strain/Sex: ICR/FEMALE, Target Tissue: Type of Lesion: FORESTOMACH: NEOPLASM, Dose [Carcinogen]: 1 MG IN 0.2 ML CORN OIL 2/WK FOR 4 WK, Promoter: NONE USED) is 97%, 88%, 9%, not significant and 94%, 89%, 5%, not significant.
